Test results taken from PubChem BioAssay (NCI).
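Results reflect a 48-hour exposure of cells in 96-well plates to compound at five concentrations. TGI: total growth inhibition.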

How the values were obtained:
Assay in all cases: NCI anticancer screen, dose series, 48 h
786-0 renal = test system: 786-0 renal
A549 NSCLC = test system: A549 NSCLC
ACHN renal = test system: ACHN renal
CAKI-1 renal = test system: CAKI-1 renal
COLO 205 colon = test system: COLO 205 colon
DLD-1 colon = test system: DLD-1 colon
DMS 114 small cell lung = test system: DMS 114 small cell lung
DMS 273 small cell lung = test system: DMS 273 small cell lung
EKVX NSCLC = test system: EKVX NSCLC
HCT-116 colon = test system: HCT-116 colon
HCT-15 colon = test system: HCT-15 colon
HOP-92 NSCLC = test system: HOP-92 NSCLC
HT29 colon = test system: HT29 colon
IGROV1 ovarian = test system: IGROV1 ovarian
K-562 leukemia = test system: K-562 leukemia
KM12 colon = test system: KM12 colon
KM20L2 colon = test system: KM20L2 colon
LXFL 529 NSCLC = test system: LXFL 529 NSCLC
M14 melanoma = test system: M14 melanoma
M19-MEL melanoma = test system: M19-MEL melanoma
MALME-3M melanoma = test system: MALME-3M melanoma
MOLT-4 leukemia = test system: MOLT-4 leukemia
NCI-H226 lung = test system: NCI-H226 lung
NCI-H23 lung = test system: NCI-H23 lung
NCI-H460 lung = test system: NCI-H460 lung
NCI-H522 lung = test system: NCI-H522 lung
OVCAR-3 ovarian = test system: OVCAR-3 ovarian
OVCAR-4 ovarian = test system: OVCAR-4 ovarian
OVCAR-5 ovarian = test system: OVCAR-5 ovarian
OVCAR-8 ovarian = test system: OVCAR-8 ovarian
RPMI-8226 leukemia = test system: RPMI-8226 leukemia
RXF 393 renal = test system: RXF 393 renal
RXF-631 renal = test system: RXF-631 renal
SF-295 CNS = test system: SF-295 CNS
SF-539 CNS = test system: SF-539 CNS
SK-MEL-2 melanoma = test system: SK-MEL-2 melanoma
SK-MEL-28 melanoma = test system: SK-MEL-28 melanoma
SK-MEL-5 melanoma = test system: SK-MEL-5 melanoma
SK-OV-3 ovarian = test system: SK-OV-3 ovarian
SN12C renal = test system: SN12C renal
SNB-19 CNS = test system: SNB-19 CNS
SNB-75 CNS = test system: SNB-75 CNS
SNB-78 CNS = test system: SNB-78 CNS
SR leukemia = test system: SR leukemia
SW-620 colon = test system: SW-620 colon
TK-10 renal = test system: TK-10 renal
UACC-257 melanoma = test system: UACC-257 melanoma
UACC-62 melanoma = test system: UACC-62 melanoma
UO-31 renal = test system: UO-31 renal
XF 498 CNS = test system: XF 498 CNS
A498 renal = test system: A498 renal
BT-549 breast = test system: BT-549 breast
CCRF-CEM leukemia = test system: CCRF-CEM leukemia
DU-145 prostate = test system: DU-145 prostate
HCC-2998 colon = test system: HCC-2998 colon
HL-60(TB) leukemia = test system: HL-60(TB) leukemia
HOP-62 NSCLC = test system: HOP-62 NSCLC
LOX IMVI melanoma = test system: LOX IMVI melanoma
MCF7 breast = test system: MCF7 breast
MDA-MB-231 breast = test system: MDA-MB-231 breast
MDA-N = test system: MDA-N
PC-3 prostate = test system: PC-3 prostate
SF-268 CNS = test system: SF-268 CNS
T-47D breast = test system: T-47D breast
U251 CNS = test system: U251 CNS

`CC(=O)OC1(Sc2ccccc2)CC2[C@H]3COC(C)(C)O[C@H]3CC[C@@]2(C)CC1=O` (stereo partly drawn) gave a TGI (786-0 renal) greater than 100 µM, a TGI (A549 NSCLC) greater than 100 µM and a TGI (ACHN renal) greater than 100 µM. It also gave a TGI (CAKI-1 renal) greater than 100 µM, a TGI (COLO 205 colon) greater than 100 µM and a TGI (DLD-1 colon) greater than 100 µM. For the same compound, the TGI (DMS 114 small cell lung) was greater than 100 µM, the TGI (DMS 273 small cell lung) was greater than 100 µM and the TGI (EKVX NSCLC) was greater than 100 µM. For the same compound, the TGI (HCT-116 colon) was greater than 100 µM, the TGI (HCT-15 colon) was greater than 100 µM and the TGI (HOP-92 NSCLC) was 86.1 µM. The TGI (HT29 colon) was greater than 100 µM, the TGI (IGROV1 ovarian) was greater than 100 µM and the TGI (K-562 leukemia) was greater than 100 µM. It also gave a TGI (KM12 colon) greater than 100 µM, a TGI (KM20L2 colon) greater than 100 µM and a TGI (LXFL 529 NSCLC) greater than 100 µM. For the same compound, the TGI (M14 melanoma) was greater than 100 µM, the TGI (M19-MEL melanoma) was greater than 100 µM and the TGI (MALME-3M melanoma) was greater than 100 µM. For the same compound, the TGI (MOLT-4 leukemia) was greater than 100 µM, the TGI (NCI-H226 lung) was greater than 100 µM and the TGI (NCI-H23 lung) was greater than 100 µM. The TGI (NCI-H460 lung) was greater than 100 µM, the TGI (NCI-H522 lung) was 79.8 µM and the TGI (OVCAR-3 ovarian) was greater than 100 µM. It also gave a TGI (OVCAR-4 ovarian) greater than 100 µM, a TGI (OVCAR-5 ovarian) greater than 100 µM and a TGI (OVCAR-8 ovarian) greater than 100 µM. The TGI (RPMI-8226 leukemia) was 69.7 µM, the TGI (RXF 393 renal) was greater than 100 µM and the TGI (RXF-631 renal) was greater than 100 µM. For the same compound, the TGI (SF-295 CNS) was greater than 100 µM, the TGI (SF-539 CNS) was 95.9 µM and the TGI (SK-MEL-2 melanoma) was greater than 100 µM. The TGI (SK-MEL-28 melanoma) was greater than 100 µM, the TGI (SK-MEL-5 melanoma) was 70 µM and the TGI (SK-OV-3 ovarian) was 95.7 µM. For the same compound, the TGI (SN12C renal) was greater than 100 µM, the TGI (SNB-19 CNS) was greater than 100 µM and the TGI (SNB-75 CNS) was 81.4 µM. It also gave a TGI (SNB-78 CNS) greater than 100 µM, a TGI (SR leukemia) of 45.4 µM and a TGI (SW-620 colon) greater than 100 µM. The TGI (TK-10 renal) was greater than 100 µM, the TGI (UACC-257 melanoma) was greater than 100 µM and the TGI (UACC-62 melanoma) was greater than 100 µM. It also gave a TGI (UO-31 renal) greater than 100 µM and a TGI (XF 498 CNS) of 57.3 µM.

Work on `COc1ccc2c(=O)c(-c3cc(OC)c(OC)cc3OC)coc2c1` yielded a TGI (786-0 renal) greater than 100 µM, a TGI (A498 renal) greater than 100 µM and a TGI (A549 NSCLC) greater than 100 µM. The TGI (ACHN renal) was greater than 100 µM, the TGI (BT-549 breast) was greater than 100 µM and the TGI (CAKI-1 renal) was greater than 100 µM. It also gave a TGI (CCRF-CEM leukemia) greater than 100 µM, a TGI (COLO 205 colon) of 42.6 µM and a TGI (DLD-1 colon) greater than 100 µM. It also gave a TGI (DMS 114 small cell lung) greater than 24.6 µM, a TGI (DMS 273 small cell lung) greater than 100 µM and a TGI (DU-145 prostate) greater than 100 µM. The TGI (EKVX NSCLC) was greater than 100 µM, the TGI (HCC-2998 colon) was greater than 63.9 µM and the TGI (HCT-116 colon) was greater than 100 µM. The TGI (HCT-15 colon) was greater than 100 µM, the TGI (HL-60(TB) leukemia) was 2.92 µM and the TGI (HOP-62 NSCLC) was greater than 100 µM. For the same compound, the TGI (HT29 colon) was greater than 38.3 µM, the TGI (IGROV1 ovarian) was greater than 100 µM and the TGI (K-562 leukemia) was greater than 100 µM. For the same compound, the TGI (KM12 colon) was greater than 100 µM, the TGI (LOX IMVI melanoma) was greater than 100 µM and the TGI (LXFL 529 NSCLC) was greater than 100 µM. For the same compound, the TGI (M14 melanoma) was greater than 100 µM, the TGI (M19-MEL melanoma) was greater than 100 µM and the TGI (MALME-3M melanoma) was greater than 100 µM. The TGI (MCF7 breast) was greater than 100 µM, the TGI (MDA-MB-231 breast) was greater than 100 µM and the TGI (MDA-N) was greater than 100 µM. The TGI (MOLT-4 leukemia) was greater than 100 µM, the TGI (NCI-H226 lung) was greater than 100 µM and the TGI (NCI-H23 lung) was greater than 100 µM. It also gave a TGI (NCI-H460 lung) greater than 100 µM, a TGI (NCI-H522 lung) of 5.44 µM and a TGI (OVCAR-3 ovarian) of 15.3 µM. It also gave a TGI (OVCAR-4 ovarian) greater than 100 µM, a TGI (OVCAR-5 ovarian) greater than 100 µM and a TGI (OVCAR-8 ovarian) greater than 100 µM. The TGI (PC-3 prostate) was greater than 100 µM, the TGI (RPMI-8226 leukemia) was greater than 40.3 µM and the TGI (RXF 393 renal) was 24.2 µM. For the same compound, the TGI (RXF-631 renal) was greater than 100 µM, the TGI (SF-268 CNS) was greater than 100 µM and the TGI (SF-295 CNS) was 12.5 µM. The TGI (SF-539 CNS) was 43.1 µM, the TGI (SK-MEL-2 melanoma) was greater than 100 µM and the TGI (SK-MEL-28 melanoma) was greater than 100 µM. The TGI (SK-MEL-5 melanoma) was greater than 100 µM, the TGI (SK-OV-3 ovarian) was greater than 44.1 µM and the TGI (SN12C renal) was greater than 100 µM. For the same compound, the TGI (SNB-19 CNS) was greater than 100 µM, the TGI (SNB-75 CNS) was 8.93 µM and the TGI (SNB-78 CNS) was greater than 100 µM. It also gave a TGI (SR leukemia) greater than 100 µM, a TGI (SW-620 colon) greater than 100 µM and a TGI (T-47D breast) greater than 100 µM. It also gave a TGI (TK-10 renal) greater than 100 µM, a TGI (U251 CNS) greater than 38.6 µM and a TGI (UACC-257 melanoma) greater than 100 µM. The TGI (UACC-62 melanoma) was greater than 100 µM, the TGI (UO-31 renal) was greater than 100 µM and the TGI (XF 498 CNS) was 8.07 µM.
